Results: the supplement of paper PMC8837787

system: Saccharomyces cerevisiae ABC16-Green Monster; experiment: growth inhibition at single dose (up to 150 µM), below the 70% cut-off for dose-response; higher = more potent; settings: 18 h; 30 °C; YPD
Outline: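 Percent growth inhibition is the reported value. Drug-sensitive S. cerevisiae ABC16-Green Monster cultures in log phase (OD600 0.1–0.2), 200 µl per well in 96-well plates, received each library compound once at 150 µM in biological duplicates, with untreated cultures run alongside. Growth was followed by OD600 at 0 h and after 18 h at 30 °C. Dose-response was not done for compounds below 70% in both replicates.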

**Q.** `O=C(NC1CCN(Cc2ccccc2)CC1)c1cc2nc(-c3ccc(Cl)s3)cc(C(F)(F)F)n2n1` was tested. Which “growth inhibition at single dose” value did it give?
**A.** Its value is less than 70%.

**Q.** With `COc1ccc(S(=O)(=O)N(Cc2cccs2)c2ccc3c(c2)OCCO3)cc1NC(C)=O` as the molecule, how does the “growth inhibition at single dose” value read?
**A.** The value was less than 70%.

**Q.** With `COc1cc(C(=O)c2c(-c3ccccc3)cc3ccccn23)cc(OC)c1OC` as the molecule, how does the “growth inhibition at single dose” value read?
**A.** Its value is less than 70%.

**Q.** With `CC(O)(c1ccc(Cl)cc1)C(CN1CCCCC1)c1ccccc1` (stereo not drawn) as the molecule, how does the “growth inhibition at single dose” value read?
**A.** The value was less than 70%.

**Q.** Which “growth inhibition at single dose” value does the source give for `O=C(CN1C(=O)CSc2ccc(C(F)(F)F)cc21)Nc1ccc(Cl)cc1` here?
**A.** Its value is less than 70%.

**Q.** With `CC1CN(C(=O)c2ccc(S(=O)(=O)Nc3ccccc3F)cc2)CC(C)O1` (stereo not drawn) as the molecule, how does the “growth inhibition at single dose” value read?
**A.** Its value is less than 70%.

**Q.** `CCCCOC(=O)Nc1cc2nc(C3CCCCC3)[nH]c2cc1N1CCCC1` was tested. Which “growth inhibition at single dose” value did it give?
**A.** The value was less than 70%.

**Q.** Which “growth inhibition at single dose” value does the source give for `O=C(Nc1ccc([N+](=O)[O-])cc1)Nc1cccnc1Cl` here?
**A.** The value was less than 70%.

**Q.** How did the “growth inhibition at single dose” value turn out when `CCn1nc(C(=O)NCc2ccc(OC)cc2)c2c1CCN(C(=O)C1Cc3ccccc3O1)C2` (stereo not drawn) was run?
**A.** Its value is less than 70%.

**Q.** How did the “growth inhibition at single dose” value turn out when `CSc1nc2ccc(NC(=O)c3cn4ccccc4n3)cc2s1` was run?
**A.** The value was less than 70%.

**Q.** For `CCCc1c(CC)c(=N)c2ccccc2n1C`, which “growth inhibition at single dose” value is on record?
**A.** Its value is less than 70%.

**Q.** With `CC(=O)N1CCc2cc(NC(=O)c3cc(C)n(C4CCCCC4)c3C)ccc21` as the molecule, how does the “growth inhibition at single dose” value read?
**A.** The value was less than 70%.

**Q.** `CS(=O)(=O)N1CCCc2cc(-c3csc(Nc4ccccn4)n3)ccc21` was tested. Which “growth inhibition at single dose” value did it give?
**A.** The value was less than 70%.

**Q.** How did the “growth inhibition at single dose” value turn out when `CN(C)c1ccc(N2C(N)=NC(N)=NC2(C)C)cc1` was run?
**A.** Its value is less than 70%.

**Q.** With `COc1cc(OC)cc(N2C(=O)N(Cc3ccc(C(C)(C)C)cc3)c3ccccc3S2(=O)=O)c1` as the molecule, how does the “growth inhibition at single dose” value read?
**A.** The value was less than 70%.

**Q.** `CCCn1c(=O)n(CC(=O)Nc2ccc(C)c(C)c2)c(=O)c2c1nc(C(F)(F)F)n2CCOC` was tested. Which “growth inhibition at single dose” value did it give?
**A.** Its value is less than 70%.

**Q.** How did the “growth inhibition at single dose” value turn out when `Cc1ccc(C)c(Cn2c(N3CCC(C(=O)NCc4cccs4)CC3)nc3ccccc32)c1` was run?
**A.** The value was less than 70%.

**Q.** Which “growth inhibition at single dose” value does the source give for `CCOC(=O)c1cnc2ccc(OC)cc2c1Nc1ccc(N2CCN(C)CC2)cc1` here?
**A.** Its value is less than 70%.

**Q.** For `COc1cc2cc(C(=O)Nc3ccccc3)c(N)nc2cc1OC`, which “growth inhibition at single dose” value is on record?
**A.** The value was less than 70%.

**Q.** How did the “growth inhibition at single dose” value turn out when `COc1ccc(-c2nonc2NC(=O)c2cccc(Cl)c2)cc1OC` was run?
**A.** The value was less than 70%.

**Q.** `Cc1cc(N2CCN(C)CC2)n2ncc(-c3ccccc3Cl)c2n1` was tested. Which “growth inhibition at single dose” value did it give?
**A.** Its value is less than 70%.

**Q.** How did the “growth inhibition at single dose” value turn out when `CC(C)(C)c1ccc(C(=O)NCCOc2ccccc2F)cc1` was run?
**A.** The value was less than 70%.

**Q.** Which “growth inhibition at single dose” value does the source give for `Cc1nn(C)c(C)c1NS(=O)(=O)c1c(Cl)cc(-c2ccnc(N3CCNCC3)c2)cc1Cl` here?
**A.** Its value is less than 70%.

**Q.** Which “growth inhibition at single dose” value does the source give for `c1nc(NCc2ccc(CN3CCOCC3)cc2)c2sccc2n1` here?
**A.** The value was less than 70%.

**Q.** With `FC(F)(F)c1cccc(CNc2ncnc3sccc23)c1` as the molecule, how does the “growth inhibition at single dose” value read?
**A.** Its value is less than 70%.

**Q.** With `CC1=Nc2ccc(Cl)cc2C(c2ccccc2)N1CCNC(=O)CN(C)C` (stereo not drawn) as the molecule, how does the “growth inhibition at single dose” value read?
**A.** Its value is less than 70%.

**Q.** `COC(=O)c1c(C)[nH]c(C2=NNC(=NC3CC3)SC2)c1C` was tested. Which “growth inhibition at single dose” value did it give?
**A.** The value was less than 70%.

**Q.** How did the “growth inhibition at single dose” value turn out when `CN1N=C2c3ccccc3CCC2C1c1ccc(C(F)(F)F)cc1` (stereo not drawn) was run?
**A.** The value was less than 70%.

**Q.** With `Oc1ccc(Br)cc1CN1CCN(Cc2cccc(F)c2)CC1` as the molecule, how does the “growth inhibition at single dose” value read?
**A.** Its value is less than 70%.

**Q.** How did the “growth inhibition at single dose” value turn out when `CCOc1ccc(-c2nc(C(=O)Nc3ncccc3O)cs2)cc1` was run?
**A.** The value was less than 70%.

**Q.** `O=c1c2ccccc2[nH]c2ccc(Oc3ncnc4ccsc34)cc12` was tested. Which “growth inhibition at single dose” value did it give?
**A.** Its value is less than 70%.

**Q.** For `CCN(CC)CCCNc1ccnc2cc3ccccc3cc12`, which “growth inhibition at single dose” value is on record?
**A.** Its value is less than 70%.

**Q.** For `OC(CNC1CCCCC1)Cn1c2ccccc2c2ccccc21` (stereo not drawn), which “growth inhibition at single dose” value is on record?
**A.** Its value is less than 70%.

**Q.** Which “growth inhibition at single dose” value does the source give for `COc1ccc2c(c1OC)C(=O)N1c3ccccc3N=C(c3ccc(C)cc3)CC21` (stereo not drawn) here?
**A.** The value was less than 70%.

**Q.** Which “growth inhibition at single dose” value does the source give for `Oc1c(C(Nc2ccccn2)c2cccc(Oc3ccccc3)c2)ccc2cccnc12` (stereo not drawn) here?
**A.** The value was less than 70%.

**Q.** For `O=C(Nc1cc(Cl)cc(Cl)c1)c1cc(Br)ccc1O`, which “growth inhibition at single dose” value is on record?
**A.** Its value is less than 70%.

**Q.** Which “growth inhibition at single dose” value does the source give for `CC(C)(C)CC(C)(C)NCC(O)COc1ccc(Cl)cc1Cl` (stereo not drawn) here?
**A.** Its value is less than 70%.

**Q.** Which “growth inhibition at single dose” value does the source give for `COc1ccc2c(c1)OC(O)(C(F)(F)C(F)(F)F)CC2=O` (stereo not drawn) here?
**A.** Its value is less than 70%.
